One block for each compound: values may come before it.
Legend:
[1] = tested on: Smad2 phosphorylation in PCs; assay: Smad2 activation assay (pSmad2 immunofluorescence); type: cell-based, human; conditions: PCs treated with 2 ng/mL TGF-β, inhibitor dose of 1 M
Description: (A) HDME cells (10^4 cells/mL) and HSM cells (5×10^3 cells/mL) were first stained by CellTracker™ Green CMFDA (Invitrogen, Grand Island, NY) and CellTracker™ Red CMTPX (Invitrogen, Grand Island, NY) according the manufacture's instruction 24 h before experiment. After live cell staining, ECs were treated with 2 ng/mL of TGF-β for 3 h and PCs were treated with […] or TGFβi-MSNP at inhibitor dose of 1 μM for 3 h. Subsequently, both cell types were co-cultured in Matrigel-coated 6-well plates for further incubation of 16 h at 37° C. PC/EC adhesions were quantitatively determined from five fields of three independent samples with the fluorescent microscope (Zeiss, Germany). *, P<0.05. (B) Use of immunofluorescence assay to determine the level of Smad2 phosphorylation. PCs were seeded in 8-well chamber slides. 16 h post cell seeding, PCs were treated with 2 ng/mL TGF-β for 3 h. Subsequently, the cells were treated with TGFβi-laden MSNP at the inhibitor dose of 1 M for 1-24 h. […] The slides were visualized under a fluorescence microscope. (C) The signal intensity of the green channel, reflecting activated Smad2 (pSmad2), was calculated by Image J software (version 1.37c, NIH). *, P<0.05.
Smad2 activation was determined using an immunofluorescent staining in 8-well chamber slides in which 4×10^4 PCs were cultured in each well containing 0.4 mL culture medium. […]

[2] = tested on: PC coverage of ECs in BxPC3 xenograft; assay: CD31/NG2 co-staining of ECs and PCs in BxPC3 xenograft; type: in vivo, nude mice; conditions: i.v., inhibitor dose 1 mg/kg, tumor collected 1-2 h post injection
Description: “T” indicates tumor cells. Arrows point out stroma. (B) Tumor-bearing animals (tumor size of 0.8˜1.0 cm in diameter) were divided into two groups and received i.v. injection of TGFβi-MSNP at inhibitor dose of 1 mg/kg (MSNP dose of 2 mg/kg). Saline and i.v. injection of free inhibitor at same dose were used as control. Tumor tissues were quickly collected 1-2 h post injection and OCT embedded for frozen section and dual color immunohistochemistry staining. The procedure of the staining was provided in the method section. This dual color staining that labels EC maker CD31 in green (FITC) and PC maker NG2 in red (Alexa fluor 594) were used to compare the effect of tumor blood vessel integrity and quantify the extent of PC/EC association. Zoom-in images were provided at higher magnification to show the extent of PC/EC association in each group. PC covered EC were quantified in three random fields in each group. *, P<0.05. […]
The tumor tissues were rapidly embedded by OCT reagent before sectioning to provide 4 m thick slices. […] The slides were visualized under a fluorescence microscope. The PC coverage was counted from three randomly selected fields.

[3] = Animal body weight during treatment; type: in vivo, nude mice; conditions: compared to saline-treated BxPC3 tumor-bearing mice
Description: (A) The animal treatments are described in the method section. BxPC3 cells were subcutaneously injected into mice 7 days before treatments (gray boxes). These animals received six i.v. injections (red boxes) every 3-6 days (green boxes) for 38 days as shown. The tumor inhibition effect of two-wave treatment was compared to saline, GEM-Lip alone, free GEM, empty liposome, and TGFβi-MSNP. Tumor size was accurately measured 1-2 times per week. Tumor weight was calculated according to the formula Tumor weight (mg)=(length in mm)×(width in mm)2/2. *P<0.05, compared to GEM-Lip group. (B) The animal weights were recorded at indicate time points and expressed for the experimental duration. *P<0.05, compared to saline; #P<0.05, compared to GEM-Lip. (C) Histological analyses of kidney sections were performed by UCLA DLAM diagnostic laboratory services. The sections were stained with hematoxylin/eosin (H&E) and examined by light microscopy. Representative images are shown. […]
One week after tumor implantation, the BxPC-3 tumor-bearing mice were randomly divided into six groups. […] The body weight and tumor size were accurately recorded one to two times per week. Tumor weight was calculated according to the formula Tumor weight (mg)=(length in mm)×(width in mm)^2/2.

[4] = Blood biochemistry; type: in vivo, mice; conditions: serum
Description: Following the animal experiments described above, the mice were sacrificed on the 38th day and serum was collected by centrifuging the whole blood at 5,000 rpm for 15 min. The biochemical parameters were assayed by UCLA Division of Laboratory Animal Medicine (DLAM) diagnostic laboratory services.

[5] = Histology of kidney, liver and spleen; type: in vivo, mice; conditions: H&E, day 38
Description: (A) The animal treatments are described in the method section. BxPC3 cells were subcutaneously injected into mice 7 days before treatments (gray boxes). These animals received six i.v. injections (red boxes) every 3-6 days (green boxes) for 38 days as shown. The tumor inhibition effect of two-wave treatment was compared to saline, GEM-Lip alone, free GEM, empty liposome, and TGFβi-MSNP. Tumor size was accurately measured 1-2 times per week. Tumor weight was calculated according to the formula Tumor weight (mg)=(length in mm)×(width in mm)2/2. *P<0.05, compared to GEM-Lip group. (B) The animal weights were recorded at indicate time points and expressed for the experimental duration. *P<0.05, compared to saline; #P<0.05, compared to GEM-Lip. (C) Histological analyses of kidney sections were performed by UCLA DLAM diagnostic laboratory services. The sections were stained with hematoxylin/eosin (H&E) and examined by light microscopy. Representative images are shown. Higher magnification images were provided to shown the swelling and edema occur in Bowman's space, a morphological abnormality of GEM-induced renal toxicity. White arrows point to normal Bowman's space in glomerulus, and the black arrows point to the swelling and edema occur in Bowman's space.
Appropriate size sections of the tumor, liver, kidney, and spleen were fixed in 10% formalin and then embedded into paraffin. […]

[6] = tested on: cytidine deaminase (CDA); BxPC3 cells; assay: Protection against CDA-mediated GEM inactivation (MTS assay); type: cell-based, human; conditions: CDA 100 ng/mL, 1 h at 37° C., then BxPC3 cells 72 h
Description: We also assess the ability of the liposome to protect GEM against the effect of on cytidine deaminase (CDA), which plays a key role in drug inactivation (circulatory half-life of <8 minutes) in the clinic. Briefly, free GEM or GEM-laden liposomes were mixed with CDA enzyme at a concentration of 100 ng/mL in the incubation medium for 1 h at 37° C. The incubation media were then added to BxPC3 cells, which were cultured in 96 wells plate for 72 h. IC50 values were determined by the MTS assay for each group. The results were compared to the IC50 values for GEM or GEM-liposomes, not incubated with CDA. […] By contrast, free GEM was not protected against the effect of CDA.

[7] = tested on: PDAC; conditions: previously untreated PDAC patients with metastatic disease; cited from earlier work
[8] = in the clinic; cited from earlier work
[9] = tested on: tumor; conditions: animal study; cited from earlier work

Compound: c1ccc(-c2[nH]ncc2-c2ccnc3ccccc23)nc1 [LY364947]
duration of inhibition of Smad2 phosphorylation [1]: 6 h
composite fluorescence staining of PC overlap with ECs in tumor [2]: slight but non-significant reduction

ALB ([4]; day 38): 3.2 ± 0.1 g/dL
ALP ([4]; day 38): 55.8 ± 9.8 U/L
BUN ([4]; day 38): 38.0 ± 11.3 mg/dL
CA ([4]; day 38): 9.4 ± 0.3 mg/dL
CHOL ([4]; day 38): 58.7 ± 4.0 mg/dL
CK ([4]; day 38): 512.0 ± 39.6 U/L
CO2 ([4]; day 38): 20.5 ± 2.8 mEq/L
CREAT ([4]; day 38): 0.2 ± 0.0 mg/dL
DBILI ([4]; day 38): 0.7 ± 0.5 mg/dL
GGT ([4]; day 38): 5.3 ± 1.155 U/L
GLU ([4]; day 38): 128.3 ± 16.9 mg/dL
PHOS ([4]; day 38): 6.1 ± 1 mg/dL
TBILI ([4]; day 38): 0.5 ± 0.2 mg/dL
TP ([4]; day 38): 5.1 ± 0.2 g/dL
BUN CR ([4]; day 38, BUN-to-creatinine ratio): 191 ± 16
Compound: Nc1ccn([C@@H]2O[C@H](CO)[C@@H](O)C2(F)F)c(=O)n1 [Free GEM, gemcitabine]
body weight change [3]: reduced weight gain
ALT ([4]; day 38): 42.5 ± 33.8 U/L
AST ([4]; day 38): 222 ± 178 U/L
kidney histology (glomerular swelling and edema of Bowman's space) [5]: intermediate nephrotoxicity
protection of GEM against CDA [6]: not protected
median overall survival [7]: 6.7 months
circulatory half-life [8]: < 8 min

Compound: CC(=O)O[C@H]1C(=O)[C@@]2(C)[C@H]([C@H](OC(=O)c3ccccc3)[C@]3(O)C[C@H](OC(=O)[C@H](O)[C@@H](NC(=O)c4ccccc4)c4ccccc4)C(C)=C1C3(C)C)[C@]1(OC(C)=O)CO[C@@H]1C[C@@H]2O [paclitaxel]
increase of GEM content in the tumor [9]: 2.8 fold
